Converted amounts (≈) assume the structure as drawn.
What was measured:
[1] = system: A. baumannii strain 5075 (AB5075); experiment: Broth microdilution MIC determination of compound alone; format: cell-based; details: Acinetobacter baumannii; compound alone; AB5075; read-out: MIC
Method: Our initial screening began by testing a diverse selection of 2-AI compounds from our internal library for their minimal inhibitory concentrations (MIC) against A. baumannii isolate 5075.
Day Cultures (6 h) were subcultured to 5×10^5 CFU/mL in cation adjusted Mueller-Hinton broth (CAMHB). Aliquots (1 mL) were placed in culture tubes, and compound was added from 100 mM stock solutions, such that the compound concentration equaled the highest concentration tested (200 μM or 64 μg/mL). Samples were then aliquoted (200 μL) into the first row of wells of a 96-well plate, with all remaining wells being filled with 100 μL of initial bacterial subculture. The wells in row one were mixed five times before 100 μL was transferred to the following row (row two). Row two was then mixed five times, and 100 μL was transferred to row three. This processed was repeated until the final row had been mixed. This process provided a serial dilution of the compound. Plates were covered with Glad Press n'Seal and were incubated under stationary conditions at 37° C. for 16 hours. MIC values were recorded as the lowest concentration at which no bacterial growth was observed.

[2] = system: A. baumannii strain 5075 (AB5075); experiment: Macrolide sensitization / antibiotic resensitization: antibiotic MIC in presence of compound (broth microdilution); format: cell-based, Acinetobacter baumannii; details: AB5075; for MIC (μg/mL) of the antibiotic / MIC: antibiotic alone, no compound (control row); for MIC: Acinetobacter baumannii, read-out: MIC (μg/mL) of the antibiotic
Method: A. baumannii 5075 was plated on LB agar, then grown in CAMHB for 6-8 h and this culture was used to inoculate fresh CAMHB (5×10^5 CFU/mL). The resulting suspension was aliquoted (5 mL) into culture tubes and compound, from 100 mM DMSO stock, was added. One aliquot was not treated (control). 1 mL of each sample was transferred to a new culture tube and antibiotic was added. Rows 2-12 of a 96-well microtiter plate were filled with 100 μL/well from the remaining 4 mL bacterial subcultures, allowing the concentration of compound to be kept uniform throughout the antibiotic dilution procedure. Samples containing antibiotic were aliquoted (200 μL) into the corresponding first row wells of the microtiter plate. Row 1 wells were mixed 6 to 8 times then 100 μL was withdrawn and transferred to row 2. Row 2 wells were mixed 6 to 8 times, followed by a 100 μL transfer from row 2 to row 3. This procedure was repeated to serially dilute the rest of the rows of the microtiter plate, with the exception of the final row, to which no antibiotic was added (to check for growth of bacteria in the presence of compound alone). The microtiter plate was then covered, placed in a covered damp plastic container and incubated under stationary conditions at 37° C. After 16-18 hrs minimum inhibitory concentration (MIC) values were recorded as the lowest concentration of antibiotic at which there was no visible growth of bacteria. Experiments were carried out in duplicate each time and repeated at least twice.
The difference in antibiotic MIC between the control (no compound) sample, and the samples containing each compound was recorded as the fold-reduction.
Day Cultures (6 h) were subcultured to 5×10^5 CFU/mL in cation adjusted Mueller-Hinton broth (CAMHB). […] One milliliter of the resulting solution was aliquoted into a separate culture tube and was dosed with antibiotic so that the resulting concentration was the highest desirable concentration to be tested. Bacteria treated with antibiotic alone were used as a control. Row one of a 96-well plate was filled with 200 μL of the antibiotic/compound solution, and the remaining rows were filled with 100 μL of the remaining 4 mL bacterial subculture. The wells in row one were mixed five times before 100 μL was transferred to the following row (row two). Row two was then mixed five times, and 100 μL was transferred to row three. This process was repeated until the second to last row had been reached. The last row is left unexposed to antibiotic in order to serve as a negative control. The antibiotic only treated bacteria was plated by aliquoting 200 μL of the treated bacteria into row one and filling the remaining rows with untreated bacteria from the original bacteria subculture. The rows were mixed in the same way as described above. Plates were covered with Glad Press n'Seal and were incubated under stationary conditions at 37° C. for 16 hours. MIC values were recorded as the lowest concentration at which no bacterial growth was observed. Fold reductions were determined by comparison of the compound treated wells with the antibiotic only treated control wells.

[3] = compound at 30 μM vs antibiotic alone
[4] = in presence of compound at 30 μM
[5] = compound at 60 μM vs antibiotic alone

CCCCCCc1ccc(-c2c[nH]c(N)n2)cc1
MIC [1]: 100 µM (≈ 24.3 µg/mL)

Nc1nc(CCCNC(=O)c2cc(Br)c(Br)[nH]2)c[nH]1
MIC [1]: > 200 µM

CCCCCCC(CCCCCC)NC(=O)CCCc1c[nH]c(N)n1
MIC [1]: 100 µM (≈ 35.1 µg/mL)

CCCCCCC(=O)Nc1ccc2[nH]c(N)nc2c1
MIC [1]: > 200 µM

Nc1nc2cc(NC(=O)c3c(F)c(F)c(F)c(F)c3F)ccc2[nH]1
MIC [1]: > 200 µM

Cc1ccc(C(=O)Nc2ccc3[nH]c(N)nc3c2)cc1
MIC [1]: > 200 µM

C/C(=C\c1ccccc1)CNC(=O)Cn1cc(CCCCCc2c[nH]c(N)n2)nn1
MIC [1]: > 200 µM

CCCCCCCCCC(=O)NCCn1cc(CCCCCc2c[nH]c(N)n2)nn1
MIC [1]: > 200 µM

Nc1nc(CCCCCc2cn(-c3ccc(C(=O)NCCc4ccccc4)cc3)nn2)c[nH]1
MIC [1]: > 200 µM

CCCCCCC/C=C\CCCCCCCc1c[nH]c(N)n1
MIC [1]: > 200 µM

CC1(C)CC(=O)N(c2ccc3[nH]c(N)nc3c2)C(=O)C1
MIC [1]: > 200 µM

CCCCCCc1ccc(-c2nc(N)[nH]c2CCCCCC)cc1
MIC [1]: > 200 µM

CCCCCCCCn1cc(Cc2ccccc2)nc1N
MIC [1]: > 200 µM

CCOc1ccc(Cn2c(CCCCCc3cn(CCNC(=O)c4ccc(C)cc4)nn3)cnc2N)cc1OCC
MIC [1]: 100 µM (≈ 56 µg/mL)

NCC[C@H](O)C(=O)N[C@@H]1C[C@H](N)[C@@H](O[C@H]2O[C@H](CN)[C@@H](O)[C@H](O)[C@H]2O)[C@H](O)[C@H]1O[C@H]1O[C@H](CO)[C@@H](O)[C@H](N)[C@H]1O [Amikacin, reference compound]
MIC (μg/mL) of the antibiotic [2]: 128 µg/mL

Cl.Nc1nc(-c2ccc(NC(=O)/C=C/c3ccccc3)cc2)c[nH]1 [Compound 2]
MIC [1]: 100 µM
Fold reduction (azithromycin MIC) [2, 3]: 4 fold
Fold reduction (clarithromycin MIC) [2, 3]: 32 fold
Fold reduction (erythromycin MIC) [2, 3]: 8 fold
Azithromycin MIC [2, 4]: 16 µg/mL

CCCCCC(=O)Nc1ccc(-c2c[nH]c(N)n2)cc1.Cl [Compound 3]
MIC [1]: > 200 µM
Fold reduction (azithromycin MIC) [2, 5]: 8 fold
Fold reduction (clarithromycin MIC) [2, 5]: 32 fold
Fold reduction (erythromycin MIC) [2, 5]: 16 fold
Azithromycin MIC ([2]; in presence of compound at 60 μM): 8 µg/mL

CCCCCCCCCCCNC(=O)CCCc1c[nH]c(C)n1.Cl [Compound 5]
MIC [1]: 100 µM
Fold reduction (azithromycin MIC) [2, 3]: 8 fold
Fold reduction (clarithromycin MIC) [2, 3]: 256 fold
Fold reduction (erythromycin MIC) [2, 3]: 16 fold
Azithromycin MIC [2, 4]: 8 µg/mL

CCCCCCCCCCNC(=O)Cn1cc(CCCCCc2c[nH]c(N)n2)nn1.Cl [Compound 6]
MIC [1]: > 200 µM
Fold reduction (erythromycin MIC) [2, 5]: 4 fold

CCCCCc1ccc(C(=O)NCCn2cc(CCCCCc3cnc(N)n3Cc3ccc(CCCC)cc3)nn2)cc1 [Compound 7]
MIC [1]: 200 µM (≈ 117 µg/mL)
Fold reduction (erythromycin MIC) [2, 5]: 4 fold

Nc1nc(-c2ccc(NC(=O)c3cc(F)c(F)c(F)c3)cc2)c[nH]1 [Compound 8]
MIC [1]: 100 µM (≈ 33.2 µg/mL)
Fold reduction (clarithromycin MIC) [2, 3]: 32 fold
Fold reduction (erythromycin MIC) [2, 3]: 8 fold

Nc1nc(-c2ccc(NC(=O)c3ccc(Cl)c(Cl)c3)cc2)c[nH]1 [Compound 9]
MIC [1]: 100 µM (≈ 34.7 µg/mL)
Fold reduction (clarithromycin MIC) [2, 3]: 64 fold
Fold reduction (erythromycin MIC) [2, 3]: 16 fold

CCCCCCC(=O)Nc1cccc(-c2c[nH]c(N)n2)c1.Cl [Compound 11]
MIC [1]: > 200 µM
Fold reduction (erythromycin MIC) [2, 5]: 4 fold

CCCCCCCCCCn1c(CCCCCC)cnc1N.Cl [Compound 12]
MIC [1]: 100 µM
Fold reduction (erythromycin MIC) [2, 5]: 4 fold

Cl.Nc1ncc(CCCCCc2ccccc2)[nH]1 [Compound 13]
MIC [1]: 200 µM
Fold reduction (erythromycin MIC) [2, 3]: 4 fold

Nc1nc(-c2ccc(NC(=O)c3cccc(F)c3)cc2)c[nH]1 [Compound 14]
MIC [1]: > 200 µM
Fold reduction (erythromycin MIC) [2, 5]: 8 fold

Nc1nc(-c2ccc(NC(=O)c3cc(F)cc(F)c3)cc2)c[nH]1 [Compound 15]
MIC [1]: 200 µM (≈ 62.9 µg/mL)
Fold reduction (erythromycin MIC) [2, 5]: 8 fold

Nc1nc(-c2ccc(NC(=O)c3ccc(Cl)cc3)cc2)c[nH]1 [Compound 16]
MIC [1]: > 200 µM
Fold reduction (erythromycin MIC) [2, 5]: 4 fold

Nc1nc(-c2ccc(NC(=O)c3c(F)c(F)c(F)c(F)c3F)cc2)c[nH]1 [Compound 17]
MIC [1]: > 200 µM
Fold reduction (erythromycin MIC) [2, 5]: 4 fold

Nc1nc(-c2ccc(NC(=O)c3ccccc3F)cc2)c[nH]1 [Compound 22]
MIC [1]: > 200 µM

Nc1nc(-c2ccc(NC(=O)c3ccc(C(F)(F)F)cc3)cc2)c[nH]1 [Compound 23]
MIC [1]: 50 µM (≈ 17.3 µg/mL)

Nc1nc(-c2ccc(NC(=O)c3ccc(C(F)(F)F)c(F)c3)cc2)c[nH]1 [Compound 24]
MIC [1]: 25 µM (≈ 9.11 µg/mL)

CCCCCCCCCC(=O)N[C@@H](Cc1c[nH]c2ccccc12)C(=O)N[C@H](CC(N)=O)C(=O)N[C@@H](CC(=O)O)C(=O)N[C@@H]1C(=O)NCC(=O)N[C@@H](CCCN)C(=O)N[C@@H](CC(=O)O)C(=O)N[C@H](C)C(=O)N[C@@H](CC(=O)O)C(=O)NCC(=O)N[C@H](CO)C(=O)N[C@@H]([C@H](C)CC(=O)O)C(=O)N[C@@H](CC(=O)c2ccccc2N)C(=O)O[C@@H]1C [Daptomycin, reference compound]
MIC [2]: 2050 µg/mL

CO[C@@H]1[C@@H](O[C@@H]2O[C@H](C)[C@@H](O[C@H]3C[C@@](C)(O)[C@@H](OC(=O)CC(C)C)[C@H](C)O3)[C@H](N(C)C)[C@H]2O)[C@@H](CC=O)C[C@@H](C)[C@@H](O)/C=C/C=C/C[C@@H](C)OC(=O)C[C@H]1OC(C)=O [Josamycin, josamycin, reference compound]
MIC (μg/mL) of the antibiotic [2]: 128 µg/mL

NC[C@H]1O[C@H](O[C@H]2[C@H](O)[C@@H](O[C@H]3O[C@H](CO)[C@@H](O)[C@H](N)[C@H]3O)[C@H](N)C[C@@H]2N)[C@H](O)[C@@H](O)[C@@H]1O [Kanamycin, reference compound]
MIC [2]: > 512 µg/mL

CC(=O)NC[C@H]1CN(c2ccc(N3CCOCC3)c(F)c2)C(=O)O1 [Linezolid, linezolid, reference compound]
MIC [2]: 256 µg/mL

CO[C@H]1C[C@H](O[C@H]2[C@H](C)[C@@H](O[C@@H]3O[C@H](C)C[C@H](N(C)C)[C@H]3O)[C@@H](C)C[C@@]3(CO3)C(=O)[C@H](C)[C@@H](O)[C@@H](C)[C@@H](C)OC(=O)[C@@H]2C)O[C@@H](C)[C@@H]1O [Oleandomycin, oleandomycin, reference compound]
MIC (μg/mL) of the antibiotic [2]: 256 µg/mL

[H]/N=C(/N)N[C@H]1[C@H](O)[C@@H](O)[C@H](O[C@@H]2O[C@@H](C)[C@](O)(C=O)[C@H]2O[C@@H]2O[C@@H](CO)[C@H](O)[C@@H](O)[C@@H]2NC)[C@@H](N/C(N)=N\[H])[C@@H]1O [Streptomycin, reference compound]
MIC [2]: > 512 µg/mL

NC[C@H]1O[C@H](O[C@H]2[C@H](O)[C@@H](O[C@H]3O[C@H](CO)[C@@H](O)[C@H](N)[C@H]3O)[C@H](N)C[C@@H]2N)[C@H](N)C[C@@H]1O [Tobramycin, reference compound]
MIC [2]: 256 µg/mL

CO[C@H]1C[C@H](O[C@H]2[C@H](C)[C@@H](O[C@@H]3O[C@H](C)C[C@H](N(C)C)[C@H]3OC(C)=O)[C@@H](C)C[C@@]3(CO3)C(=O)[C@H](C)[C@@H](OC(C)=O)[C@@H](C)[C@@H](C)OC(=O)[C@@H]2C)O[C@@H](C)[C@@H]1OC(C)=O [Troleandomycin, troleandomycin, reference compound]
MIC [2]: > 512 µg/mL

Gentamicin [reference compound]
MIC (μg/mL) of the antibiotic [2]: >512 µg/mL

Neomycin [reference compound]
MIC (μg/mL) of the antibiotic [2]: 64 µg/mL

colistin [reference compound]
MIC (μg/mL) of the antibiotic [2]: 0.5 µg/mL

spiramycin [reference compound]
MIC (μg/mL) of the antibiotic [2]: >512 µg/mL

Source: patent publication US20210283107A1, “Methods to Expand the Spectrum of Gram-Positive Antibiotics” (NORTH CAROLINA STATE UNIVERSITY, priority 2016, published 2021)
